Assay results reported in patent publication US12187718B1, “1-cyclopropyl-6-fluoro-7-(4-((5-(4-methoxybenzylideneamino)-2-thioxo-1,3,4-thiadiazol-3(2H)-yl)methyl)piperazin-1-yl)-4-oxo-1,4-dihydroquinoline-3-carboxylic acid as an anti-inflammatory and anticancer compound” (KING FAISAL UNIVERSITY, priority 2023, dated 2025).

Columns and labels:
[1] = system: human prostate cancer cells (PC3); assay: Cytotoxicity by SRB assay, PC3 cells; format: cell-based; details: androgen-independent metastatic human prostate cancer cells (PC3), 72 h, 0.01 μM to 100 μM
Protocol: (§1) The human prostate cancer cells (PC3) and human osteosarcoma cells (MG-63) were obtained from Nawah Scientific Inc. (Mokatam, Cairo, Egypt) and cultured in DMEM (Dulbecco's modified eagle's medium), Gibco, USA, supplemented with fetal bovine serum (FBS) at a concentration of 10% and 100 U/mL of penicillin and streptomycin (PS). The Cells were incubated at 37° C. in a humidified environment that contained 5% CO2.
(§2) Cells were seeded in 96-well plates as aliquots of 100 μL cell suspension and incubated in a complete media for 24 h. afterward, cells were treated with N′-(1-naphthoyloxy)-2-(benzo[d]thiazol-2-yl)acetimidamide at diverse concentrations ranging from 0.01 μM to 100 μM for 72 h. Then, cells were fixed at 4° C. for one hour with 150 μL of 10% trichloroacetic acid (TCA). After washing the cells five times with distilled water, 70 μL of sulforhodamine (SRB) solution (0.4% w/v) was added and incubated for 10 min at room temperature in a dark place. […] Then, 150 μL of Tris pH 10.5 (10 mM) was added, and the absorbance was measured at 540 nm using a BMG LABTECH®-FLUOstar Omega microplate reader (Ortenberg, Germany). Half maximal inhibitory concentrations (IC50) values were calculated for each experiment using GraphPad Prism 6 software. […]
(§3) The inhibition was calculated using the following equation: Inhibition %=100−Average Viability

[2] = system: human osteosarcoma cells (MG-63); assay: Cytotoxicity by SRB assay, MG-63 cells; format: cell-based; details: osteosarcoma (MG-63) cells, 72 h, 0.01 μM to 100 μM
Protocol: as §1, §2, §3

[3] = biological target: Bovine Serum Albumin (Bos taurus, UniProt P02769); assay: Bovine Serum Albumin Assay (BSA), inhibition of protein denaturation; format: biochemical; details: BSA 0.4% w/v, pH 6.4, 72° C. for 10 minutes, 20-100 μg/mL, turbidity at 660 nm
Protocol: In vitro-inflammatory activities of the tested samples were determined using a modified method of the BSA assay reported by Williams et al. BSA solution (0.4%, w/v) was prepared in Tris Buffered Saline. The pH was adjusted to 6.4 with glacial acetic acid. Different dilutions of 20, 40, 60, 80, and 100 μg/mL of the stock solutions were added to test tubes containing 1 mL of 0.4%, w/v BSA buffer solution. Both negative (solvent) and positive (aspirin) controls were assayed in a similar manner. The solutions were then heated in a water bath at 72° C. for 10 minutes and cooled for 20 minutes under laboratory conditions. The turbidity of the solutions (level of protein precipitation) was measured at 660 nm in Spectrophotometer (V-770 UV-Visible/NIR Spectrophotometer).
The percentage inhibition of precipitation (protein denaturation) was determined relative to the negative control using the following equation:
[formula] % Anti-Denaturation Activity=% Inhibition of Protein Denaturation=% Anti-inflammatory Activity

Sequence of Bovine Serum Albumin (P02769 25-607): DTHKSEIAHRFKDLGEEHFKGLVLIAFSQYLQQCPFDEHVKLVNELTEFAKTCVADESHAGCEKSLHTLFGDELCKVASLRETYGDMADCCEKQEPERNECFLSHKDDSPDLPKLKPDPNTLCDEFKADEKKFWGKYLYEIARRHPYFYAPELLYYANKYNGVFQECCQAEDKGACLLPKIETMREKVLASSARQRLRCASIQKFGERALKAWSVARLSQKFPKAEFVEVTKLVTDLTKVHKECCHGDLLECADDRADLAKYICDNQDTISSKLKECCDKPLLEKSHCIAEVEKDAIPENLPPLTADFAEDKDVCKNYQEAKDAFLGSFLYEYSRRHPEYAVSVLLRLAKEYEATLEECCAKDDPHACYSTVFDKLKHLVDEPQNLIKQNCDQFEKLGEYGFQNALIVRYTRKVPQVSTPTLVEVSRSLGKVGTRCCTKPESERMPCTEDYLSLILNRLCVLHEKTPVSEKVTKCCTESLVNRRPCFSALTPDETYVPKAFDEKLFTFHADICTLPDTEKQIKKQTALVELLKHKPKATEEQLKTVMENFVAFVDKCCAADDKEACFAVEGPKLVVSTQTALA

in vitro anti-inflammatory activity (inhibition of protein denaturation) [3]: considerable anti-inflammatory effect
SMILES: COc1ccc(/C=N/c2nn(CN3CCN(c4cc5c(cc4F)c(=O)c(C(=O)O)cn5C4CC4)CC3)c(=S)s2)cc1 [1-cyclopropyl-6-fluoro-7-(4-((5-(4-methoxybenzylideneamino)-2-thioxo-1,3,4-thiadiazol-3(2H)-yl)methyl)piperazin-1-yl)-4-oxo-1,4-dihydroquinoline-3-carboxylic acid]
antiproliferative activity against PC3 cells [1]: excellent antiproliferative activities
antiproliferative activity against MG-63 cells [2]: excellent antiproliferative activities
